# Measurements as given in patent US20210213037A1, “METHODS FOR TREATING FIBROSIS” (CHILDREN'S HOSPITAL MEDICAL CENTER, priority 2018, published 2021).
# How the values were obtained:
# [1] = tested on: idiopathic pulmonary fibrosis; details: cited from earlier work
# TGFα mice = assay: TGFα-induced pulmonary fibrosis mouse model, therapeutic intervention in established fibrosis; type: in vivo; details: vs vehicle
# Excerpt: Mouse model of TGFα-induced pulmonary fibrosis and Barasertib treatment therapy The generation of TGFα-overexpressing mice has been described previously (HARDIE et al. (2004) “Conditional expression of transforming growth factor-alpha in adult mouse lung causes pulmonary fibrosis” Am J Physiol Lung Cell Mol Physiol, Vol. 286, pp. L741-749, which is herein incorporated by reference in its entirety). Clara cell-specific protein-rtTA^+/− (CCSP-rtTA) mice were crossed with heterozygous (TetO)7-cmv TGFα mice to produce bitransgenic CCSP/TGFα mice. To induce TGFα expression, the transgenic mice were fed with doxycycline (Dox)-containing chow (62.5 mg/kg) (MADALA et al. (2014) “Inhibition of the alphavbeta6 integrin leads to limited alteration of TGF-alpha-induced pulmonary fibrosis” Am J Physiol Lung Cell Mol Physiol, Vol. 306, pp. L726-735, which is herein incorporated by reference in its entirety). They were housed under specific pathogen-free conditions and handled in accordance with protocols approved by the Institutional Animal Care and Use Committee of the Cincinnati Children's Hospital Research Foundation. Barasertib (Selleckchem, Houston, Tex.) was prepared in fresh vehicle (5% DMSO and 50% PEG in PBS) every day before treatment. […]
Compound,effect on mortality [1],effect on respiratory symptoms [1],"fibroproliferation (Ki67 immunostaining of lung sections) (TGFα mice; Dox two weeks, then barasertib 25 or 50 mg/kg QD or nintedanib 60 mg/kg QD for 5 days, data not shown)","expression of ECM genes (Co11α, FN1; RT-PCR) (TGFα mice; barasertib 25 or 50 mg/kg QD or nintedanib 60 mg/kg QD i.p., FIG. 14)"
Cc1ccc(=O)n(-c2ccccc2)c1 [pirfenidone],neither pirfenidone nor nintedanib had any effect,no effect,,
COC(=O)c1ccc2c(c1)NC(=O)/C2=C(\Nc1ccc(N(C)C(=O)CN2CCN(C)CC2)cc1)c1ccccc1 [nintedanib],neither pirfenidone nor nintedanib had any effect,,reduction in fibroproliferation,attenuated
